Data from patent publication US12458654B2, “Methods of conditioning patients for T cell therapy” (Kite Pharma Inc., priority 2015, dated 2025).

How the values were obtained:
[1] = system: serum levels of cytokine analytes
Method: T cell products were generated by transduction of autologous lymphocytes with a g-murine retrovirus carrying an anti-CD19 CAR construct gene, followed by expansion to achieve desired cell dose. Anti-CD19 CAR+ T cell product characteristics were evaluated at time of harvest, or after co-culture with CD19+ cells, by flow cytometry and multiplex cytokine analysis of co-culture supernatants. CAR+ T cell co-culture for product characterization was performed with K562-CD19 cells or K562-NGFR control cells, at an effector to target ratio of 1:1. Standard incubation time was 18 hours.
Cytokine and chemokine levels were measured using EMDmillipore Luminex® xMAP® multiplex assays. Data acquisition and analysis were performed using a Luminex 200™ instrument and xPONENT® 3.1 data analysis software. For IL-7, a human IL-7 Quantikine HS ELISA Kit (HS750) was used with samples run neat per manufacturer's guidelines. The frequency of CAR T cells in circulation was measured by a quantitative PCR analysis. Patients were administered a preconditioning regimen comprising of 300 mg/m^2 cyclophosphamide on days −5 and −4, and 30 mg/m^2 fludarabine on days −5, −4, and −3. Patient sera was collected prior to administration of cyclophosphamide and fludarabine between days −12 and −5 (“pre”), immediately before administration of CAR+ T cells on day 0 (“post”) and on select days following CAR+ T cell administration up to day 18. The serum concentrations of GF-CSF, IL-2, MCP-1, IL-6, IL-10, MCP-4, CRP, IFN gamma, Granzyme A, IL-15, IL-5, Granzyme B, IL-8, IP-10, MIP-1b, PLGF, IL-16, TARC, Eotaxin-3, sICAM-1, sVCAM-1, and SAA were measured pre- and post-conditioning and on select days after administration of CAR+ T cells, as shown in FIG. 6.

[2] = system: serum levels of cytokine analytes; conditions: in vivo
[3] = human, in vivo
[4] = 300 mg/m^2 cyclophosphamide, 30 mg/m^2 fludarabine, pre vs day 0

cyclophosphamide and fludarabine
Serum concentration of CRP following conditioning [1, 4]: significantly increased | Serum concentration of IL-5 following conditioning [1, 4]: Increases | Serum concentration of IL-7 following conditioning [1, 4]: significantly increased | Serum concentration of IL-10 following conditioning [1, 4]: Increases | Serum concentration of IL-15 following conditioning [1, 4]: significantly increased | Serum concentration of IP-10 following conditioning [1, 4]: Increases | Serum concentration of MCP-1 following conditioning [1, 4]: significantly increased | Serum concentration of PLGF following conditioning [1, 4]: significantly increased | Serum concentration of s-ICAM1 following conditioning [1, 4]: Increases | Serum perform after conditioning [1, 4]: decrease | Markers showing changes in a majority of patients, associated with p<0.05 ([1]; FIG. 14, markers measured prior to CAR T cell infusion): 7 out of 41 measured markers | CRP increase, average [2]: about 10 fold | CRP increase, range [2]: essentially no change to an increase of about 25 fold | CRP level in patient sera after conditioning [2]: increased in some patients and remained stable or decreased in others | Change in serum CRP [2]: essentially no change | Change in serum PLGF [2]: only a slight increase | Change in serum VEGF-D [2]: essentially no change | Change in serum sICAM-1 [2]: essentially no change | Decrease of serum MIP-1β [2]: about 50% | IL-15 increase relative to baseline [2]: less than 10 fold | IL-15 increase relative to baseline, average [2]: about 35 fold | IL-15 level in patient sera after conditioning [2]: at least some increase | MCP-1 increase [2]: less than 4 fold | MCP-1 increase, average [2]: about 5 fold | MCP-1 level in patient sera after conditioning [2]: at least some increase | MIP-1 β level in patient sera after conditioning [2]: increased in some patients and remained stable or decreased in others | MIP-10 levels increase, average [2]: about 1.5 fold | MIP-10 levels increase, range [2]: essentially no change to an increase of about 3 fold | PLGF increase, average [2]: about 30 fold | PLGF increase, range [2]: about 2 fold or less to an increase of about over 100 fold | PLGF level in patient sera after conditioning [2]: at least some increase | VEGF-D increase, average [2]: about 3 fold | VEGF-D increase, range [2]: essentially no change to an increase of about 6 fold | VEGF-D level in patient sera after conditioning [2]: increased in some patients and remained stable or decreased in others | sICAM-1 increase, average [2]: about 3 fold | sICAM-1 increase, range [2]: essentially no change to an increase of about 4.5 fold | sICAM-1 level in patient sera after conditioning [2]: increased in some patients and remained stable or decreased in others | Change in serum IP-10 ([2]; ip): essentially no change | IP-10 increase, average ([2]; ip): about 3.5 fold | IP-10 level in patient sera after conditioning ([2]; ip): increased in some patients and remained stable or decreased in others

O=P1(N(CCCl)CCCl)NCCCO1 (centres unmarked) [cyclophosphamide]
Incidence of dose limiting toxicity (DLT) [3]: 29%
